Measurements: patent US7947706B2, “Substituted pyrrolopyridines, compositions containing them, manufacturing process therefor and use thereof” (Sanofi-Aventis Deutschland GmbH, priority 2005, dated 2011)

| SMILES | melting point [°C] |
| --- | --- |
| NC(=O)c1[nH]c2cnccc2c1-c1ccc(NC(=O)Nc2cccc(Cl)c2)cc1.O=C(O)C(F)(F)F | 221 |
| NC(=O)c1[nH]c2cnccc2c1-c1ccc(NC(=O)Nc2ccc(F)c(Cl)c2)cc1.O=C(O)C(F)(F)F | 214 |
| NC(=O)c1[nH]c2c(ccc[n+]2[O-])c1-c1ccc(NC(=O)Nc2cc(C(F)(F)F)ccc2F)cc1 [Example 8, 3-{4-[3-(2-Fluoro-5-trifluoromethylphenyl)ureido]phenyl}-7-oxy-1H-pyrrolo[2,3-b]pyridine-2-carboxamide] | 220 |
| NC(=O)c1[nH]c2ncccc2c1-c1ccc(NC(=O)Nc2ccccc2F)cc1 [Example 9, 3-{4-[3-(2-Fluorophenyl)ureido]phenyl}-1H-pyrrolo[2,3-b]-pyridine-2-carboxamide] | 268.7 |
| NC(=O)c1[nH]c2ncccc2c1-c1ccc(NC(=O)Nc2cc(C(F)(F)F)ccc2Cl)cc1 [Example 12, 3-{4-[3-(2-Chloro-5-trifluoromethylphenyl)ureido]phenyl}-1H-pyrrolo[2,3-b]pyridine-2-carboxamide] | 188.3 |
| NC(=O)c1[nH]c2ncccc2c1-c1ccc(NC(=O)Nc2cccc(C(F)(F)F)c2F)cc1 [Example 13, 3-{4-[3-(2-Fluoro-3-trifluoromethylphenyl)ureido]phenyl}-1H-pyrrolo[2,3-b]pyridine-2-carboxamide] | 265.4 |
| NC(=O)c1[nH]c2ncccc2c1-c1ccc(NC(=O)Nc2cc(F)cc(C(F)(F)F)c2)cc1 [Example 15, 3-{4-[3-(3-Fluoro-5-trifluoromethylphenyl)ureido]phenyl}-1H-pyrrolo[2,3-b]pyridine-2-carboxamide] | 257.5 |
| COc1ccccc1NC(=O)Nc1ccc(-c2c(C(N)=O)[nH]c3cnccc23)cc1 [Example 34, 3-{4-[3-(2-Methoxyphenyl)ureido]phenyl}-1H-pyrrolo[2,3-c]pyridine-2-carboxamide] | 216 |
| NC(=O)c1[nH]c2cnccc2c1-c1ccc(NC(=O)Nc2ccccc2C(F)(F)F)cc1 [Example 35, 3-{4-[3-(2-Trifluoromethylphenyl)ureido]phenyl}-1H-pyrrolo[2,3-c]pyridine-2-carboxamide] | 228 |
| NC(=O)c1[nH]c2cnccc2c1-c1ccc(NC(=O)Nc2cccc(C(F)(F)F)c2)cc1 [Example 36, 3-{4-[3-(3-Trifluoromethylphenyl)ureido]phenyl}-1H-pyrrolo-[2,3-c]pyridine-2-carboxamide] | 256 |
| NC(=O)c1[nH]c2cnccc2c1-c1ccc(NC(=O)Nc2ccc(F)cc2)cc1 [Example 37, 3-{4-[3-(4-Fluorophenyl)ureido]phenyl}-1H-pyrrolo[2,3-c]-pyridine-2-carboxamide] | 271 |
| NC(=O)c1[nH]c2cnccc2c1-c1ccc(NC(=O)Nc2ccc(C(F)(F)F)cc2)cc1 [Example 38, 3-{4-[3-(4-Trifluoromethylphenyl)ureido]phenyl}-1H-pyrrolo-[2,3-c]pyridine-2-carboxamide] | 289 |
| Cc1ccc(NC(=O)Nc2ccc(-c3c(C(N)=O)[nH]c4cnccc34)cc2)cc1 [Example 39, 3-[4-(3-p-Tolylureido)phenyl]-1H-pyrrolo[2,3-c]pyridine-2-carboxamide] | 277 |
| NC(=O)c1[nH]c2cnccc2c1-c1ccc(NC(=O)Nc2ccc(Cl)c(C(F)(F)F)c2)cc1 [Example 40, 3-{4-[3-(4-Chloro-3-trifluoromethylphenyl)ureido]phenyl}-1H-pyrrolo[2,3-c]pyridine-2-carboxamide] | 228 |
| NC(=O)c1[nH]c2cnccc2c1-c1ccc(NC(=O)Nc2cc(C(F)(F)F)ccc2Cl)cc1 [Example 41, 3-{4-[3-(2-Chloro-5-trifluoromethylphenyl)ureido]phenyl}-1H-pyrrolo[2,3-c]pyridine-2-carboxamide] | 243 |
| NC(=O)c1[nH]c2cnccc2c1-c1ccc(NC(=O)Nc2ccc(OC(F)(F)F)cc2)cc1 [Example 42, 3-{4-[3-(4-Trifluoromethoxyphenyl)ureido]phenyl}-1H-pyrrolo[2,3-c]pyridine-2-carboxamide] | 276 |
| NC(=O)c1[nH]c2cnccc2c1-c1ccc(NC(=O)Nc2ccc(OC(F)F)cc2)cc1 [Example 43, 3-{4-[3-(4-Difluoromethoxyphenyl)ureido]phenyl}-1H-pyrrolo[2,3-c]pyridine-2-carboxamide] | 257 |
| Cc1ccc(NC(=O)Nc2ccc(-c3c(C(N)=O)[nH]c4cnccc34)cc2)cc1C [Example 44, 3-{4-[3-(3,4-Dimethylphenyl)ureido]phenyl}-1H-pyrrolo[2,3-c]pyridine-2-carboxamide] | 230 |
| COc1cc(NC(=O)Nc2ccc(-c3c(C(N)=O)[nH]c4cnccc34)cc2)cc(OC)c1 [Example 45, 3-{4-[3-(3,5-Dimethoxyphenyl)ureido]phenyl}-1H-pyrrolo-[2,3-c]pyridine-2-carboxamide] | 225 |
| Cc1ccc(C)c(NC(=O)Nc2ccc(-c3c(C(N)=O)[nH]c4cnccc34)cc2)c1 [Example 46, 3-{4-[3-(2,5-Dimethylphenyl)ureido]phenyl}-1H-pyrrolo[2,3-c]pyridine-2-carboxamide] | 261 |
| NC(=O)c1[nH]c2cnccc2c1-c1ccc(NC(=O)Nc2ccccc2F)cc1 [Example 47, 3-{4-[3-(2-Fluorophenyl)ureido]phenyl}-1H-pyrrolo[2,3-c]-pyridine-2-carboxamide] | 242 |

Continued, values first:

| melting point [°C] | SMILES |
| --- | --- |
| 227.1 | COc1ccccc1NC(=O)Nc1ccc(-c2c(C(N)=O)[nH]c3ncccc23)cc1 [Example 10, 3-{4-[3-(2-Methoxyphenyl)ureido]phenyl}-1H-pyrrolo[2,3-b]-pyridine-2-carboxamide] |
| 296.2 | NC(=O)c1[nH]c2ncccc2c1-c1ccc(NC(=O)Nc2ccc(C(F)(F)F)cc2)cc1 [Example 11, 3-{4-[3-(4-Trifluoromethylphenyl)ureido]phenyl}-1H-pyrrolo-[2,3-b]pyridine-2-carboxamide] |
| 234.7 | NC(=O)c1[nH]c2ncccc2c1-c1ccc(NC(=O)Nc2ccc(F)c(C(F)(F)F)c2)cc1 [Example 14, 3-{4-[3-(4-Fluoro-3-trifluoromethylphenyl)ureido]phenyl}-1H-pyrrolo[2,3-b]pyridine-2-carboxamide] |
| 258.9 | NC(=O)c1[nH]c2ncccc2c1-c1ccc(NC(=O)Nc2ccc(OC(F)(F)F)cc2)cc1 [Example 16, 3-{4-[3-(4-Trifluoromethoxyphenyl)ureido]phenyl}-1H-pyrrolo[2,3-b]pyridine-2-carboxamide] |
| 223.7 | COc1ccc(NC(=O)Nc2ccc(-c3c(C(N)=O)[nH]c4ncccc34)cc2)cc1OC [Example 17, 3-{4-[3-(3,4-Dimethoxyphenyl)ureido]phenyl}-1H-pyrrolo-[2,3-b]pyridine-2-carboxamide] |
| 308.8 | Cc1ccc(C)c(NC(=O)Nc2ccc(-c3c(C(N)=O)[nH]c4ncccc34)cc2)c1 [Example 18, 3-{4-[3-(2,5-Dimethylphenyl)ureido]phenyl}-1H-pyrrolo[2,3-b]pyridine-2-carboxamide] |
| 306.2 | COc1cccc(NC(=O)Nc2ccc(-c3c(C(N)=O)[nH]c4ncccc34)cc2)c1 [Example 19, 3-{4-[3-(3-Methoxyphenyl)ureido]phenyl}-1H-pyrrolo[2,3-b]-pyridine-2-carboxamide] |
| 263.6 | NC(=O)c1[nH]c2ncccc2c1-c1ccc(NC(=O)Nc2cccc(C(F)(F)F)c2)cc1 [Example 20, 3-{4-[3-(3-Trifluoromethylphenyl)ureido]phenyl}-1H-pyrrolo-[2,3-b]pyridine-2-carboxamide] |
| 274.7 | Cc1ccc(NC(=O)Nc2ccc(-c3c(C(N)=O)[nH]c4ncccc34)cc2)cc1C [Example 21, 3-{4-[3-(3,4-Dimethylphenyl)ureido]phenyl}-1H-pyrrolo[2,3-b]pyridine-2-carboxamide] |
| 327.7 | COc1ccc(C)cc1NC(=O)Nc1ccc(-c2c(C(N)=O)[nH]c3ncccc23)cc1 [Example 22, 3-{4-[3-(2-Methoxy-5-methylphenyl)ureido]phenyl}-1H-pyrrolo[2,3-b]pyridine-2-carboxamide] |
| 266 | Cc1cccc(NC(=O)Nc2ccc(-c3c(C(N)=O)[nH]c4ncccc34)cc2)c1 [Example 23, 3-[4-(3-m-Tolylureido)phenyl]-1H-pyrrolo[2,3-b]pyridine-2-carboxamide] |
| 299.9 | NC(=O)c1[nH]c2ncccc2c1-c1ccc(NC(=O)Nc2ccc(F)cc2)cc1 [Example 24, 3-{4-[3-(4-Fluorophenyl)ureido]phenyl}-1H-pyrrolo[2,3-b]-pyridine-2-carboxamide] |
| 293 | Cc1ccc(NC(=O)Nc2ccc(-c3c(C(N)=O)[nH]c4ncccc34)cc2)cc1 [Example 25, 3-[4-(3-p-Tolylureido)phenyl]-1H-pyrrolo[2,3-b]pyridine-2-carboxamide] |
| 285 | Cc1ccc(NC(=O)Nc2ccc(-c3c(C(N)=O)[nH]c4ncccc34)cc2)cc1C(F)(F)F [Example 26, 3-{4-[3-(4-Methyl-3-trifluoromethylphenyl)ureido]phenyl}-1H-pyrrolo[2,3-b]pyridine-2-carboxamide] |
| 283.5 | NC(=O)c1[nH]c2ncccc2c1-c1ccc(NC(=O)Nc2ccc(OC(F)F)cc2)cc1 [Example 27, 3-{4-[3-(4-Difluoromethoxyphenyl)ureido]phenyl}-1H-pyrrolo[2,3-b]pyridine-2-carboxamide] |
| 266.5 | COc1cc(NC(=O)Nc2ccc(-c3c(C(N)=O)[nH]c4ncccc34)cc2)cc(OC)c1 [Example 28, 3-{4-[3-(3,5-Dimethoxyphenyl)ureido]phenyl}-1H-pyrrolo-[2,3-b]pyridine-2-carboxamide] |
| 311.1 | NC(=O)c1[nH]c2ncccc2c1-c1ccc(NC(=O)Nc2ccc(Cl)c(C(F)(F)F)c2)cc1 [Example 29, 3-{4-[3-(4-Chloro-3-trifluoromethylphenyl)ureido]phenyl}-1H-pyrrolo[2,3-b]pyridine-2-carboxamide] |
| 221 | COc1ccc(C(F)(F)F)cc1NC(=O)Nc1ccc(-c2c(C(N)=O)[nH]c3ncccc23)cc1 [Example 32, 3-{4-[3-(2-Methoxy-5-trifluoromethylphenyl)ureido]phenyl}-1H-pyrrolo[2,3-b]pyridine-2-carboxamide] |
